The structures appear in SMILES notation. Where only a bound is given, the exact number is not on record here.

As a reminder, the IC50 is the point on the concentration scale where inhibition reaches its midpoint.

T1 sequence (P56817 46-501): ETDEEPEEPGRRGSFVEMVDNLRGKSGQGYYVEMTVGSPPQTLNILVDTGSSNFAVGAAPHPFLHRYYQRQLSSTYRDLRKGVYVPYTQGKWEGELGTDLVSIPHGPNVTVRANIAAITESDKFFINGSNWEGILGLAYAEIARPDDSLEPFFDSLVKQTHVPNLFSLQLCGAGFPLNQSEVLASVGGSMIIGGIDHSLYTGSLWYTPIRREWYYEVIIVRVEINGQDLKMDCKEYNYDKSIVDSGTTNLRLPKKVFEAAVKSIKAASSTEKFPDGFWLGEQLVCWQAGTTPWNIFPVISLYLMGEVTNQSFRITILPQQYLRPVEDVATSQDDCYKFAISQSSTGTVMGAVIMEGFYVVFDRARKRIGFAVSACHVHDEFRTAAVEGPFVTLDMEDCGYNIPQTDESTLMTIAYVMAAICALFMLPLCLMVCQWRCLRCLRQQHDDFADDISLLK

This assay addresses T1, BACE1 enzyme (Homo sapiens, UniProt P56817).
T1 construct: The HEK293-9B.A1 cell line, which overexpresses the BACE1 enzyme, was derived from HEK293 cells; endogenous in cells; washed 48,000 x g membrane pellet / cell homogenate
Nature of the assay: Radioligand displacement assay with a radiolabeled BACE inhibitor on HEK293-9B.A1 cell homogenate. Format: binding. As to conditions: displacement of 1 nM tritiated radioligand, HEK293-9B.A1 homogenate, pH 5.0, 1.5 hr at 25° C.; read-out: Activity Rating (based on IC50 values). The source says: There are a number of methods by which inhibitors of the BACE enzyme can be identified experimentally. The enzyme can be obtained from membrane samples from natural tissues or cultured cells or can be expressed recombinantly in a host cell by well known methods of molecular biology. The whole enzyme or a portion thereof can be expressed, for example, in bacterial, insect or mammalian cells to obtain a catalytically active enzyme species. The enzymatic activity and/or ligand binding capability of the enzyme can be assessed within these membrane samples, or the enzyme can be purified to varying extents. As an illustrative example, the nucleic acid sequence encoding the pro and catalytic domains of human BACE can be appended on the 5′ end with an untranslated and signal sequence from the gene for acetylcholinesterase, and on the 3′ end with a sequence encoding a poly-histidine tag. This cDNA can then be expressed in Drosophila melanogaster S2 cells in which the signal and pro sequences of the transcribed/translated protein are removed by cellular proteases and the catalytic domain, appended by a C-terminal poly-histidine tag, is secreted out into the cellular medium. The enzyme can then be purified from the culture medium by nickel affinity chromatography by methods well known to those trained in the art [Mallender, W. et al., (2001) “Characterization of recombinant, soluble beta-secretase from an insect cell expression system.” Mol. Pharmacol. 59: 619-626]. Similar strategies for expressing and purifying various forms of BACE in bacterial, mammalian and other cell types would be known to one skilled in the art. A preferred method for determining the potency of a test compound in binding to the BACE enzyme is by moitoring the displacement of a suitable radioligand.
Radioligand displacement assays with a radiolabeled BACE inhibitor (WO 2004 013098, compound 3, where the methoxy group is substituted for C(^3H)3) were carried out using standard methods (Keen, M. (1999) in Receptor Binding Techniques (Walker, J. M. ed) p. 106 Humana Press, Totowa, N.J.). The HEK293-9B.A1 cell line, which overexpresses the BACE1 enzyme, was derived from HEK293 cells (Simmons, N. L. (1990) A cultured human renal epithelioid cell line responsive to vasoactive intestinal peptide. Exp. Physiol. 75:309-19.) by RAGE™ (Harrington, J. J. et al. (2001) Creation of genome-wide protein expression libraries using random activation of gene expression. Nat. Biotechnol. 19:440-5; U.S. Pat. Nos. 6,410,266 and 6,361,972). T225 flask cultures of HEK293-9B.A1 were grown to 80% confluency in DMEM supplemented with 2 mM L-glutamine, 10 μg/ml penecillin, 10 μg/ml streptomycin, 3 μg/ml puromycin, 100 nM methotrexate, and 10% fetal bovine serum (Invitrogen, Carlsbad, Calif.), harvested, and resuspended at 2×10^8 cells per 10 ml of lysis buffer consisting of 50 mM HEPES pH 7.0 containing a protease inhibitor cocktail of AEBSF 104 μM, aprotinin 80 nM, leupeptin 2 μM, bestatin 4 μM, pepstatin A 1.5 μM, and E-64 1.4 μM (0.1% of protease inhibitor cocktail P8340, Sigma-Aldrich, St. Louis, Mo.) at 4° C. The resuspended cells were homogenized using a Polytron (Brinkman, Westbury, N.Y.) at setting 6 for 10 sec., then centrifuged at 48,000×g for 10 min. The resulting pellet was washed by repeating the resuspension, homogenization and centrifugation steps. […]
(In general: In a radioligand displacement assay an active substance lowers the binding of a labelled ligand.)
As to `CCCOC1CN[C@@H]([C@@H](O)C(Cc2cc(F)cc(F)c2)NC(=O)[C@H](C)N2CC[C@H](CC(C)C)C2=O)C1` (some centres unmarked) [Example 7], the IC50 is 100 to 1000 nM. For the molecule `CCC(C)[C@@]1(NC(C)=O)CCN([C@@H](CCc2ccccc2)C(=O)N[C@@H](Cc2cc(F)cc(F)c2)[C@H](O)[C@H]2CCCCN2)C1=O` (stereo in doubt) [Example 8, (S)-2-((S)-3-acetamido-3-((R)-sec-butyl)-2-oxopyrrolidin-1-yl)-N-((1R,2S)-3-(3,5-difluorophenyl)-1-hydroxy-1-((R)-piperidin-2-yl)propan-2-yl)-4-phenylbutanamide], the IC50 is < 100 nM.

`CCCO[C@H]1CN[C@@H]([C@@H](O)[C@H](Cc2cc(F)cc(F)c2)NC(=O)[C@H](CCc2ccccc2)N2CC[C@](NC(C)=O)([C@@H](C)CC)C2=O)C1` (stereo in doubt) [Example 2, (S)-2-((R)-3-acetamido-3-secbutyl-2-oxopyrrolidin-1-yl)-N-((1R,2S)-3-(3,5-difluorophenyl)-1-hydroxy-1-((2R,4R)-4-propoxypyrrolidin-2-yl)propan-2-yl)-4-phenylbutanamide]: the IC50 was < 100 nM. As to `CCCS(=O)(=O)[C@H]1CN[C@@H]([C@@H](O)[C@H](Cc2ccccc2)NC(=O)[C@H](CCc2ccccc2)N2CC[C@](NC(C)=O)([C@H](C)CC)C2=O)C1` [Example 22, (S)-2-((S)-3-acetamido-3-((R)-sec-butyl)-2-oxopyrrolidin-1-yl)-N-((1R,2S)-1-hydroxy-3-phenyl-1-((2R,4R)-4-(propylsulfonyl)pyrrolidin-2-yl)propan-2-yl)-4-phenylbutanamide], the IC50 was < 100 nM. Regarding `CC[C@@H](C)[C@@]1(NC(C)=O)CCN([C@@H](CCc2ccccc2)C(=O)N[C@@H](Cc2cc(F)cc(F)c2)[C@H](O)[C@H]2C[C@H](O)CN2)C1=O` [Example 15, (S)-2-((S)-3-acetamido-3-((R)-sec-butyl)-2-oxopyrrolidin-1-yl)-N-((1R,2S)-3-(3,5-difluorophenyl)-1-hydroxy-1-((2R,4S)-4-hydroxypyrrolidin-2-yl)propan-2-yl)-4-phenylbutanamide], the IC50 is < 100 nM.
